Read-outs that look alike come from different tables or passages of the source.
Assays:
hippocampal neurons [1] = assay type: cell-based, rat; settings: for Neuronal survival after glutamate: survival at 48 hours
Procedure: Hippocampal Cell Culture. Primary cultures of hippocampal neurons were prepared from neonatal rat pups (p1 or p2) as previously described (Dubinsky, 1993). Neurons were plated at a density of 60,000 cells/cm^2 onto polylysine-coated plastic 12-well plates or 100 mm dishes (Becton Dickinson, Franklin Lakes, N.J.) in Neurobasal medium with B27 supplements (Life technologies, Rockville, Md.) and 0.5 mM glutamine. Fluorodeoxyuridine (15 μg/ml) was added to the cultures 24 hours after plating to inhibit glial growth. Under these culture conditions, the survival and growth of non-neuronal cells was minimized. Cells were maintained at 37° C. in 95% air/5% CO2 and were used between 6-8 days in vitro.
Neuroprotection Experiments. […] The ratio of viable cells to the total number of neurons in the pre-selected fields was calculated for quantifying survival.

hippocampal neurons [2] = experiment: Lipid exacerbation of sub-maximal glutamate toxicity
Procedure: FIG. 9. […] Arrowhead: amount of anionic lipid present in liposomes corresponding to a 1 μM final concentration of ON. Arrow: amount of cationic lipid present in complexes corresponding to a +/−charge ratio of 1/2 and 1 μM final concentration of ON. 20, 40, and 100 μg DC-Chol/DOPE correspond to amounts present in complexes of +/−charge ratio 1.6/1, 3.2/1, and 8/1 (μmole lipid/μmole ON), respectively, for a 1 μM final ON concentration. Data expressed as Mean ±S.E.M., n≧9.
Neurons were treated with amounts of cationic lipid required to complex 1 μM ONs in +/−charge ratios (μmole lipid/μmole ON) of 1/2, 1.6/1, 3.2/1 and 8/1 (6.25, 20, 40 and 100 μg DC-Chol, respectively).

neurons = experiment: Toxicity screening of commercial cationic lipids; settings: 8 hours after incubation, compared to untreated controls
hippocampal neurons [3] = experiment: Neuronal calcium (Fura-2) during perfusion of liposomes; assay type: cell-based, rat; settings: continuous perfusion of N-Rh-DOPE labeled liposomes; 100 μM NMDA as positive stimulus
Procedure: FIG. 4. […] (a) Neurons were treated with 100 μg/ml heparin prior to incubation with AL-Cy3ON. Scale bar: 5 μm. (b) Fura-2 ratios in hippocampal neurons were not altered during perfusion of anionic liposomes labeled with N—Rh-DOPE but increased in response to 100 μM NMDA. Data were from a representative field of 23 neurons from among 110 neurons imaged in 5 experiments. (c) Image taken at 24 min (*) indicated the uptake of N-Rh-DOPE within the same neurons in the field.
Addition of activated a2-M (a2-M*) to cortical neurons caused a Ca^2+ influx that was both spatially and temporally discrete. […] To examine whether the endocytosis of anionic liposomes via LRP caused Ca^2+ influx into neurons, neuronal calcium currents were studied during a continuous perfusion of liposomes labeled with N—Rh-DOPE.
Liposomes labeled with N—Rh-DOPE were prepared in a manner identical to that described in Example 1 for liposomes encapsulating Cy3ONs except that the lipid films contained 1-2.5 mole percent N—Rh-DOPE and the liposomes were prepared with buffer alone (i.e., without ONs).

hippocampal neurons [4] = experiment: Endocytosis assays: agents acting on AL-Cy3ON internalization; assay type: cell-based, rat; settings: 10 minutes pretreatment (0.45 M sucrose, 1 μM FK506, 500 nM RAP, 100 μg/ml heparin or protamine sulfate, 5 μg/ml nocodazole, 10 μg/ml cytochalasin D, 100 nM wortmannin), then AL-Cy3ONs 30 minutes at 37° C.
Procedure: Endocytosis Assays. The following agents were used to manipulate specific steps of the endocytic cycle: 0.45 M hyperosmolar sucrose (ICN biochemicals), 1 μM FK-506 (Calbiochem), and 100 nM wortmannin, 5 μg/ml nocodazole, 10 μg/ml cytochalasin D, 100 μg/ml heparin and 100 μg/ml protamine sulfate, (all from Sigma-Aldrich). Receptor-associated protein (RAP) was a generous gift from Dr. Guojun Bu (Washington University, St. Louis, Mo.) and was used at a concentration of 500 nM (Bu et al., 1994). Cells were treated with the drugs or RAP for 10 minutes prior to incubation with AL-Cy3ONs for 30 minutes at 37° C. and fixed for imaging.
(§1) Confocal Microscopy and Image Analysis. Imaging was performed on a Leica TCS 4D confocal microscope (Deerfield, Ill.) equipped with a Mercury/Xenon lamp and argon/krypton laser. Cells were excited using the 488 nm laser line to detect Oregon Green 488-Transferrin and Alexa488-Dextran, and the emitted fluorescence was collected using a 515 long-pass filter. The 568 nm laser line was used to excite Cy3 and N—Rh-DOPE (LP590 emission). Cells were imaged at a plane midway between the substrate-attached plasma membrane and the top of the cell, such that neuronal nuclei were clearly identifiable. In some cases, the entire volume of the cell was scanned in 0.5 μm increments. Optimal images were obtained by averaging 16 images in the line-scan mode at the same fixed gains for all experiments. All fluorescent images presented in figures were equally contrast enhanced using ADOBE PHOTOSHOP (Adobe, Mountain View, Calif.).

hippocampal neurons [5] = experiment: Colocalization with transferrin (early and recycling endosomes); assay type: cell-based, rat; settings: delivered in anionic liposomes
Procedure: (§2) Colocalization of Lipids and Oligonucleotides with Transferrin and Dextran. Intracellular fates of endocytosed liposomes and ONs were determined by comparing their intracellular distributions with that of Oregon Green 488-Transferrin (OG-Tf) and Alexa488-dextran (Molecular Probes, Eugene, Oreg.) used as markers for the recycling and lysosomal compartments, respectively. Neurons were incubated with AL-Cy3ONs and either 100 μg/ml OG-Tf, for 30 minutes, 1 hour or 3 hours; or with 1 mg/ml Alexa488-dextran for 3 hours. For the lipid transport experiments, neurons were incubated with liposomes labeled with N—Rh-DOPE and either OG-TF, for 30 minutes, 1 hour, or 3 hours; or with 1 mg/ml Alexa-dextran for 3 hours. In another set of experiments, neurons were incubated with AL-Cy3ONs for 30 minutes, rinsed and chased with 1 mg/ml Alexa 488 dextran for 3 hours. Cells were rinsed and fixed for imaging as described above.
as §1
(§3) All image analysis was performed using the METAMORPH Imaging System software (Universal Imaging, Downington, Pa.). The cell outlines for each set of double-labeled fields were traced out manually in the corresponding differential interference contrast image and then used to mask the fluorescence images. In each cell, the total fluorescence intensity was measured and the percent of Cy3 label or rhodamine label that colocalized with transferrin or dextran was calculated.

hippocampal neurons [6] = experiment: Colocalization with dextran (late endosomes and lysosomes); assay type: cell-based, rat; settings: 3 h; delivered in anionic liposomes
Procedure: as §2
as §1, with “Optimal images were obtained by averaging 16 images in the line-scan mode at the same fixed gains for all experiments. All fluorescent images presented in figures were equally contrast enhanced using ADOBE PHOTOSHOP (Adobe, Mountain View, Calif.).” left out
as §3

[7] = 20 μM each, added 1-2 minutes before 50 μM glutamate
[8] = Lipid/ON (+/−) charge ratio 1/1
[9] = Lipid/ON (+/−) charge ratio 2/1

Molecule: N#Cc1cc2[nH]c(=O)c(=O)[nH]c2cc1[N+](=O)[O-] [CNQX]
- Neuronal survival after glutamate (hippocampal neurons [1]; [7]): significantly increased the survival of glutamate-treated neurons

Molecule: CC(C)CCC[C@@H](C)[C@H]1CC[C@H]2[C@@H]3CC=C4C[C@@H](OC(=O)NCCN(C)C)CC[C@]4(C)[C@H]3CC[C@]12C [DC-Chol, 3β-[N-(N′,N′-dimethylaminoethane)-carbamol] cholesterol]
- Neuronal survival (hippocampal neurons [2]; 6.25 μg DC-Chol (+/− charge ratio 1/2 for 1 μM ON), 48 hours post-glutamate): survived 48 hours post-glutamate
- Neuronal survival (hippocampal neurons [2]; 20, 40 and 100 μg DC-Chol (charge ratios 1.6/1, 3.2/1, 8/1), 48 hours post-glutamate): caused extensive neuronal loss
- % Neuronal survival (neurons; [8]): 45.7%
- % Neuronal survival (neurons; [9]): 17.3%

Molecule: CCCCCCCC/C=C\CCCCCCCC(=O)OC[C@H](COP(=O)(O)OC[C@H](N)C(=O)O)OC(=O)CCCCCCC/C=C\CCCCCCCC [DOPS, 1,2-dioleoyl-sn-glycero-3-[phospho-L-serine]]
- Neuronal survival (hippocampal neurons [2]; 40 μg lipid (liposomes without AsONs), then 10 μM glutamate for 48 hours): 48%
- Effect of increasing amounts of lipid on glutamate toxicity (hippocampal neurons [2]; liposomes without AsONs, then 10 μM glutamate for 48 hours): dose-dependently exacerbate toxicity

Molecule: CCCCCCCC/C=C\CCCCCCCC(=O)OCC(C[N+](C)(C)C)OC(=O)CCCCCCC/C=C\CCCCCCCC (stereo not shown) [DOTAP, 1,2-dioleoyl-3-trimethylammonium-propane]
- % Neuronal survival (neurons; [8]): 28.2%
- % Neuronal survival (neurons; [9]): ˜0%

Molecule: C[C@]12N[C@H](Cc3ccccc31)c1ccccc12 [MK-801]
- Neuronal survival after glutamate (hippocampal neurons [1]; [7]): significantly increased the survival of glutamate-treated neurons

Molecule: CN[C@H](CC(=O)O)C(=O)O [NMDA]
- Calcium response (Fura-2 ratios) in hippocampal neurons (hippocampal neurons [3]): increased

Molecule: Cc1ccc(C(=O)Cn2c3c(sc2=N)CCCC3)cc1 [PFT-α, Pifithrin-α]
- Concentrations toxic in hippocampal cultures (hippocampal neurons [1]): 20 to 100 µM
- Neuronal survival after glutamate (hippocampal neurons [1]; 10 μM, added 3 hours before 50 μM glutamate): significantly increased the survival of glutamate-treated neurons
- Concentrations not protective (hippocampal neurons [1]; 50 μM glutamate): 0.5 to 7 µM

Molecule: C=C1[C@@H](C)[C@H]2[C@H](Cc3ccccc3)NC(=O)[C@]23[C@H](OC(C)=O)/C=C/[C@@](C)(O)C(=O)[C@@H](C)C/C=C/[C@H]3[C@@H]1O [cytochalasin D]
- Effect on binding/internalization of AL-Cy3ONs by neurons (hippocampal neurons [4]): prevented both binding and internalization of the liposomes

Molecule: N[C@@H](CCC(=O)O)C(=O)O [glutamate]
- Neuronal survival (hippocampal neurons [2]; 48 hour exposure to 10 μM glutamate alone): 71%

Molecule: COC(=O)Nc1nc2ccc(C(=O)c3cccs3)cc2[nH]1 [nocodazole]
- Effect on binding/internalization of AL-Cy3ONs by neurons (hippocampal neurons [4]): intracellular transport was inhibited

Molecule: OC[C@H]1O[C@@](CO)(O[C@H]2O[C@H](CO)[C@@H](O)[C@H](O)[C@H]2O)[C@@H](O)[C@@H]1O [sucrose]
- Effect on binding/internalization of AL-Cy3ONs by neurons (hippocampal neurons [4]): completely prevented internalization

Molecule: Lissamine Rhodamine DOPE [N-Rh-DOPE]
- Percent colocalization with Transferrin (hippocampal neurons [5]; 30 min): 45.56 ± 2.2%
- Percent colocalization with Transferrin (hippocampal neurons [5]; 1 h): 51.88 ± 2.7%
- Percent colocalization with Dextran (hippocampal neurons [6]): 22.18 ± 1.5%

Molecule: RAP: 39 kDa LRP receptor-associated protein, inhibitor of all known ligand interactions of LRP
- Effect on binding/internalization of AL-Cy3ONs by neurons (hippocampal neurons [4]): both binding and internalization of anionic liposomes was inhibited

Molecule: heparin
- Effect on binding/internalization of AL-Cy3ONs by neurons (hippocampal neurons [4]): Neither heparin nor protamine altered the level of Cy3 fluorescence within neurons

Molecule: p53 phosphodiester AsONs: free phosphodiester 5′-CTGTGAATCCTCCATGAC-3′ (SEQ ID NO:2) (unmodified DNA; listed as Rattus norvegicus)
- Neuroprotection by free ONs (hippocampal neurons [1]; without encapsulation in anionic liposomes, 50 μM glutamate, 48 hours): not neuroprotective

Molecule: protamine sulfate
- Effect on binding/internalization of AL-Cy3ONs by neurons (hippocampal neurons [4]): Neither heparin nor protamine altered the level of Cy3 fluorescence within neurons
